In patent US20230023559A1, “ARYLMETHYLENE HETEROCYCLIC COMPOUNDS AS KV1.3 POTASSIUM SHAKER CHANNEL BLOCKERS” (D. E. Shaw Research, LLC, priority 2019, published 2023):

Legend:
Kv1.3 potassium channel = target: T1, Kv1.3 potassium channel (Homo sapiens, UniProt P22001); assay: Kv1.3 potassium channel blocker activity, automated whole-cell patch clamp (Patchliner); assay type: cell-based; settings: CHO-K1 cells stably expressing Kv1.3; whole cell current inhibition; read-out: Kv1.3_IC50
T1 construct: expressed in transfected cells
How it was run: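 CHO-K1 cells stably expressing Kv1.3, automated whole-cell patch clamp. Currents evoked by 100 ms steps from −90 mV holding to +40 mV at 0.1 Hz, sampled at 10 kHz unfiltered, P/4 leak subtraction; peak current inhibition measured, compound incubation ≤10 s between pulse trains.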

hERG channel = hERG channel (Homo sapiens, UniProt Q12809); assay: hERG electrophysiology, automated whole-cell patch clamp (Patchliner)
Sequence of hERG channel (Q12809 whole entry): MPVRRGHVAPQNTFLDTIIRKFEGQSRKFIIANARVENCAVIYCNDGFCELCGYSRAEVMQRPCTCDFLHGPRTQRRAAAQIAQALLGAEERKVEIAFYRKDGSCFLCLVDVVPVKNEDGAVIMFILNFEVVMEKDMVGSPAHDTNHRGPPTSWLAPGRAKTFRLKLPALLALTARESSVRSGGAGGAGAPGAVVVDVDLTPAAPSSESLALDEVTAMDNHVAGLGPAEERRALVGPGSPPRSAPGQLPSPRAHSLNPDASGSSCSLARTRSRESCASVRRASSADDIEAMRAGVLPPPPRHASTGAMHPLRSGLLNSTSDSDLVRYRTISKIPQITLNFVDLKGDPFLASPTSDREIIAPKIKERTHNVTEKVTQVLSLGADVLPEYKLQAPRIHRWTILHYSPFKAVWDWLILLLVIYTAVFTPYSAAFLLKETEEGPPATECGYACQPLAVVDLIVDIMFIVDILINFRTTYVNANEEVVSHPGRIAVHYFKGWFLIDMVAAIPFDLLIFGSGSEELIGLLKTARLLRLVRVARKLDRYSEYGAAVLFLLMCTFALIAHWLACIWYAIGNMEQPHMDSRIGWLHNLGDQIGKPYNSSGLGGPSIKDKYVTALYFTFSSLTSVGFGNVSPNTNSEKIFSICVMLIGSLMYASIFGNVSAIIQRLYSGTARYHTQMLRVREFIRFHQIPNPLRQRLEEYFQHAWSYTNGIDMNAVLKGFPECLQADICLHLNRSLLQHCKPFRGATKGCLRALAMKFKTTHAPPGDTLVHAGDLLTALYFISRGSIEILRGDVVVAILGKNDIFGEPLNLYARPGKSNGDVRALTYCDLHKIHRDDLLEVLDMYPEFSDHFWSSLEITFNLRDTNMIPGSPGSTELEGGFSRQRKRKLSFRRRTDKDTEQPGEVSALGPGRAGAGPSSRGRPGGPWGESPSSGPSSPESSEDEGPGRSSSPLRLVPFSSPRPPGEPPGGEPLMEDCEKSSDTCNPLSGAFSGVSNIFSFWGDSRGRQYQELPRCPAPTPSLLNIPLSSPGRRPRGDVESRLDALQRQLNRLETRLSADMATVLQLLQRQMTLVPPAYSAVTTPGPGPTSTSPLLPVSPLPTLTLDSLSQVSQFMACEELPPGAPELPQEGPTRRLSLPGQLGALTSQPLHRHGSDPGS
Method: CHO-K1 cells stably expressing hERG were grown in Ham's F-12 Medium with Glutamine containing 10% heat-inactivated FBS, 1% Penicillin/Streptomycin, Hygromycin (100 μg/ml) and G418 (100 μg/ml). Cells were grown in culture flasks at 37° C. in a 5% CO2-humidified incubator.
The cells were bathed in an extracellular solution containing 140 mM NaCl, 4 mM KCl, 2 mM CaCl2), 1 mM MgCl2, 5 mM Glucose, 10 mM HEPES; pH adjusted to 7.4 with NaOH; 295-305 mOsm. The internal solution contained 50 mM KCl, 10 mM NaCl, 60 mM KF, 20 mM EGTA, 10 mM HEPES; pH adjusted to 7.2 with KOH; 285 mOsm. All compounds were dissolved in DMSO at 30 mM. Compound stock solutions were freshly diluted with external solution to concentrations of 30 nM, 100 nM, 300 nM, 1 μM, 3 μM, 10 μM, 30 μM and 100 μM. The highest content of DMSO (0.3%) was present in 100 μM.
The voltage protocol (see Table B) was designed to simulate voltage changes during a cardiac action potential with a 300 ms depolarization to +20 mV (analogous to the plateau phase of the cardiac action potential), a repolarization for 300 ms to −50 mV (inducing a tail current) and a final step to the holding potential of −80 mV. The pulse frequency was 0.3 Hz. Control (compound-free) and compound pulse trains for each compound concentration applied contained 70 pulses.
Whole cell current recordings and compound application were enabled by means of an automated patch clamp platform Patchliner (Nanion). EPC 10 patch clamp amplifier (HEKA) along with Patchmaster software (HEKA Elektronik Dr. Schulze GmbH) was used for data acquisition. Data were sampled at 10 kHz without filtering. Increasing compound concentrations were applied consecutively to the same cell without washouts in between.
AUC and PEAK values were obtained with Patchmaster (HEKA Elektronik Dr. Schulze GmbH). To determine IC50 the last single pulse in the pulse train corresponding to a given compound concentration was used. Obtained AUC and PEAK values in the presence of compound were normalized to control values in the absence of compound. Using Origin (OridinLab), IC50 was derived from data fit to Hill equation: Icompound/Icontrol=(100−A)/(1+([compound]/IC50)nH)+A, where IC50 is the concentration at which current inhibition is half-maximal, [compound] is the applied compound concentration, A is the fraction of current that is not blocked and nH is the Hill coefficient.

T1 sequence (P22001 whole entry): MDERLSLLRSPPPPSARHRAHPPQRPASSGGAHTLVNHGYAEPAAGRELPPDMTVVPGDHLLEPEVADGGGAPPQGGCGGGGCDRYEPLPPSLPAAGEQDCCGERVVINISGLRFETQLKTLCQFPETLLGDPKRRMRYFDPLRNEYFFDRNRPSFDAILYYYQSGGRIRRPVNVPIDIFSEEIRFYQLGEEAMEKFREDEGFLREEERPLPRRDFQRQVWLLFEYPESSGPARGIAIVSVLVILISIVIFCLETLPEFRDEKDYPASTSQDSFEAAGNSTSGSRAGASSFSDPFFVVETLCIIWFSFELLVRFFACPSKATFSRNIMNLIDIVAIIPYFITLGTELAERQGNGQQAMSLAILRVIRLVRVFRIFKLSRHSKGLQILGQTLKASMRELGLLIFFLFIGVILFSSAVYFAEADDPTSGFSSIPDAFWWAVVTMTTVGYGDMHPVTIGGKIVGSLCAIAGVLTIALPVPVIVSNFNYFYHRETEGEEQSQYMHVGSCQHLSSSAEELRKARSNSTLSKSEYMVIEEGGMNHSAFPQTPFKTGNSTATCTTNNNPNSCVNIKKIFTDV

Compound	IC50 (Kv1.3 potassium channel) [µM]	IC50 (hERG channel) [µM]
NC(c1cc(Cl)c(Cl)cc1O)C1CCN(C2CCOCC2)CC1 (stereo not drawn) [Compound 44, 2-(amino(1-(tetrahydro-2H-pyran-4-yl)piperidin-4-yl)methyl)-4,5-dichlorophenol]	< 10	< 30
Cc1cc(O)c([C@H](N)C2CCN(C(=O)c3c[nH]c(=O)c(Cl)c3)CC2)c(F)c1Cl [Compound 264, 5-[4-[(R)-amino(3-chloro-2-fluoro-6-hydroxy-4-methylphenyl)methyl]piperidine-1-carbonyl]-3-chloro-1H-pyridin-2-one Trifluoroacetic Acid]	< 10	> 30
N[C@@H](c1cc(Cl)c(Cl)cc1O)C1CCN(C(=O)c2cc(=O)[nH]cn2)CC1 [Compound 176, (R)-(4-(amino (4,5-dichloro-2-hydroxyphenyl)methyl)piperidin-1-yl)(6-hydroxy-pyrimidin-4-yl)methanone trifluoroacetic acid]	< 10	> 30
N[C@@H](c1cc(Cl)c(Cl)cc1O)C1CCN(C(=O)[C@H]2C[C@@H](O)C2)CC1 [Compound 138, 2-[(R)-amino([1-[(1S,3S)-3-hydroxycyclo-butanecarbonyl]piperidin-4-yl])methyl]-4,5-dichlorophenol trifluoroacetic acid]	< 10	> 30
C[C@H](O)[C@H](N)C(=O)N1CCC([C@@H](N)c2cc(Cl)c(Cl)cc2O)CC1 [Compound 175, (2S,3S)-2-amino-1-[4-[(R)-amino(4,5-dichloro-2-hydroxyphenyl)methyl]piperidin-1-yl]-3-hydroxybutan-1-one bis trifluoroacetic acid]	< 0.5	> 30
C[C@@H](O)[C@H](O)C(=O)N1CCC([C@@H](N)c2cc(Cl)c(Cl)cc2O)CC1 [Compound 208, 1-(4-((R)-amino(4,5-dichloro-2-hydroxyphenyl)methyl)piperidin-1-yl)-2,3-dihydroxybutan-1-one trifluoroacetic acid]	< 0.5	> 30
N[C@@H](c1cc(Cl)c(Cl)cc1O)C1CCN(C(=O)[C@@H](O)CO)CC1 (single isomer, unassigned) [Compound 120]	< 0.5	> 30
N[C@@H](c1cc(Cl)c(Cl)cc1O)C1CCN(C(=O)C2CCC(=O)NC2)CC1 (stereo partly drawn) [Compound 299, 5-[4-[(R)-amino(4,5-dichloro-2-hydroxyphenyl)methyl]piperidine-1-carbonyl]piperidin-2-one Trifluoroacetic Acid]	< 0.5	> 30
C[C@@H](N)C(=O)N1CCC([C@@H](N)c2cc(Cl)c(Cl)cc2O)CC1 (single isomer, unassigned) [Compound 69]	< 0.5	> 30
N[C@@H](c1cc(Cl)c(Cl)cc1O)C1CCN(S(=O)(=O)[C@H]2CCNC2)CC1 (single isomer, unassigned; isomer 2) [Compound 118]	< 0.5	> 30
Cc1cc(O)c([C@H](N)C2CCN(C(=O)[C@H](O)CO)CC2)cc1F [Compound 283, (2R)-1-[4-[(R)-amino(5-fluoro-2-hydroxy-4-methylphenyl)methyl]piperidin-1-yl]-2,3-dihydroxypropan-1-one]	< 10	> 30
Cc1cc(O)c([C@H](N)C2CCN(C(=O)c3ccc(=O)[nH]c3)CC2)cc1Cl [Compound 228, 5-[4-[(R)-amino(5-chloro-2-hydroxy-4-methylphenyl)methyl]piperidine-1-carbonyl]-1H-pyridin-2-one]	< 0.5	> 30
N[C@@H](c1cc(Cl)c(Cl)cc1O)C1CCN(C(=O)C2(O)COC2)CC1 [Compound 143, 3-[4-[(R)-amino(4,5-dichloro-2-hydroxyphenyl)methyl]piperidine-1-carbonyl]oxetan-3-ol]	< 10	> 30

Now from value to compound, other results behind:

IC50 (Kv1.3 potassium channel) [µM]	Compound	IC50 (hERG channel) [µM]
< 0.5	COc1ccc(C(=O)N2CCC([C@@H](N)c3cc(Cl)c(C)cc3O)CC2)cn1 [Compound 243, 2-[(R)-amino[1-(6-methoxypyridine-3-carbonyl)piperidin-4-yl]methyl]-4-chloro-5-methylphenol trifluoroacetic acid]	< 30
< 0.5	N[C@@H](c1cc(Cl)c(Cl)cc1O)C1CCN(C(=O)c2cccc(=O)[nH]2)CC1 [Compound 178, (R)-6-(4-(amino(4,5-dichloro-2-hydroxyphenyl)methyl)piperidine-1-carbonyl) pyridin-2(1H)-one formic acid]	> 30
< 0.5	CN1CC[C@H](C(=O)N2CCC([C@@H](N)c3cc(Cl)c(Cl)cc3O)CC2)C1 [Compound 106, (4-((R)-amino(4,5-dichloro-2-hydroxyphenyl)methyl)piperidin-1-yl)((S)-1-methylpyrrolidin-3-yl)methanone]	> 30
< 0.5	NC(c1cc(Cl)c(Cl)cc1O)C1CCN(C(=O)[C@@H]2CCNC2)CC1 (stereo partly drawn) [Compound 66, (4-(amino(4,5-dichloro-2-hydroxyphenyl)methyl)piperidin-1-yl)((R)-pyrrolidin-3-yl)methanone Trifluoroacetic Acid]	> 30
< 0.5	COC[C@H](O)C(=O)N1CCC([C@@H](N)c2cc(Cl)c(Cl)cc2O)CC1 [Compound 181, (2S)-1-[4-[(R)-amino(4,5-dichloro-2-hydroxyphenyl)methyl]piperidin-1-yl]-2-hydroxy-3-methoxypropan-1-one trifluoroacetic acid]	> 30
< 0.5	N[C@@H](c1cc(Cl)c(Cl)cc1O)C1CCN(C(=O)[C@@H]2CCC(=O)NC2)CC1 (single isomer, unassigned; isomer 2) [Compound 222]	> 30
< 0.5	CN1C(=O)CC[C@H]1C(=O)N1CCC([C@@H](N)c2cc(Cl)c(Cl)cc2O)CC1 [Compound 306, (S)-5-(4-((R)-amino(4,5-dichloro-2-hydroxyphenyl)methyl)piperidine-1-carbonyl)-1-methylpyrrolidin-2-one trifluoroacetic acid]	> 30
< 0.5	N[C@@H](c1c(O)cc(Cl)c(Cl)c1F)C1CCN(C(=O)[C@H](O)CO)CC1 [Compound 291, (R)-1-(4-((R)-amino(3,4-dichloro-2-fluoro-6-hydroxyphenyl)methyl)piperidin-1-yl)-2,3-dihydroxypropan-1-one]	> 30
< 0.5	Cc1cc(O)c([C@H](N)C2CCN(C(=O)[C@H](O)CO)CC2)cc1C [Compound 293, (2R)-1-[4-[(R)-amino(2-hydroxy-4,5-dimethylphenyl)methyl]piperidin-1-yl]-2,3-dihydroxypropan-1-one Trifluoroacetic Acid]	> 30
< 0.5	N[C@@H](c1cc(Cl)c(Cl)cc1O)C1CCN(C(=O)C2(O)CNC2)CC1 [Compound 219, 3-[4-[(R)-amino(4,5-dichloro-2-hydroxyphenyl)methyl]piperidine-1-carbonyl]azetidin-3-ol Trifluoroacetic Acid]	> 30
< 0.5	NC(c1c(O)cc(Cl)c(Cl)c1F)C1CCN(C(=O)[C@H](O)CO)CC1 (stereo partly drawn) [Compound 328, (2R)-1-[4-[amino(3,4-dichloro-2-fluoro-6-hydroxyphenyl)methyl]piperidin-1-yl]-2,3-dihydroxypropan-1-one Trifluoroacetic Acid]	> 30
